Experimental data reported in patent publication US20170240556A1, “BIFLUORODIOXALANE-AMINO-BENZIMIDAZOLE KINASE INHIBITORS FOR THE TREATMENT OF CANCER, AUTOIMMUNEINFLAMMATION AND CNS DISORDERS” (4SC DISCOVERY GMBH, priority 2012, published 2017).

What was measured:
[1] = target: Casein kinase 1 delta (CSKN1D) (Homo sapiens, UniProt P48730); experiment: Casein kinase assay, CK1 delta; format: biochemical; conditions: recombinant CSKN1D 5 nM, ATP 10 μM
Experimental: (§1) The recombinant protein Casein kinase 1 delta (CSKN1D) was added to the substrate solution in a concentration of 5 nM and gently mixed. Dilution series in of compounds of the present invention in DMSO were added to the reaction mixture, followed after 20 min by addition of a mixture of ATP and ^33P-ATP (specific activity 0.01 μCi/μl final) to a final concentration of 10 μM. Reactions were carried out at 25° C. for 120 min, followed by spotting the reactions onto P81 ion exchange filter paper. Unbound phosphate was removed by washing of the filters in 0.75% phosphoric acid. […] IC50 values and curve fits were obtained using the program Prism® (Graph Pad Software).

[2] = target: Casein kinase 1 epsilon (CSKN1E) (Homo sapiens, UniProt P49674); experiment: Casein kinase assay, CK1 epsilon; format: biochemical; conditions: recombinant CSKN1E 30 nM, ATP 10 μM
Sequence of Casein kinase 1 epsilon (CSKN1E) (P49674 whole entry): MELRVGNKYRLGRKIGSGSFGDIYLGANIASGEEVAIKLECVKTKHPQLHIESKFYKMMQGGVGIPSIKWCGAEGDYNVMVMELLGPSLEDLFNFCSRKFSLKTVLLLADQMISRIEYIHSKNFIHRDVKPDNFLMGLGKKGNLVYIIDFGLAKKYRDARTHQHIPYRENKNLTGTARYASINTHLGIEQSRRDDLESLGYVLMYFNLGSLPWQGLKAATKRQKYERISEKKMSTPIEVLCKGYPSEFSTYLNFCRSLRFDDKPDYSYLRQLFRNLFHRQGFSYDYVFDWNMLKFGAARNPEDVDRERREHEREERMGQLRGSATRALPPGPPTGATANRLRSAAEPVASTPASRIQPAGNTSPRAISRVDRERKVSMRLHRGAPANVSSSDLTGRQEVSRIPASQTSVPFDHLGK
Experimental: as §1
The above assay was also used to determine the inhibitory capacity of the compounds of the present invention on Casein Kinase 1 epsilon, wherein instead of CSKN1D, recombinant protein Casein kinase 1 epsilon (CSKN1E) was added to the substrate solution in a concentration of 30 nM and gently mixed.

Sequence of Casein kinase 1 delta (CSKN1D) (P48730 whole entry): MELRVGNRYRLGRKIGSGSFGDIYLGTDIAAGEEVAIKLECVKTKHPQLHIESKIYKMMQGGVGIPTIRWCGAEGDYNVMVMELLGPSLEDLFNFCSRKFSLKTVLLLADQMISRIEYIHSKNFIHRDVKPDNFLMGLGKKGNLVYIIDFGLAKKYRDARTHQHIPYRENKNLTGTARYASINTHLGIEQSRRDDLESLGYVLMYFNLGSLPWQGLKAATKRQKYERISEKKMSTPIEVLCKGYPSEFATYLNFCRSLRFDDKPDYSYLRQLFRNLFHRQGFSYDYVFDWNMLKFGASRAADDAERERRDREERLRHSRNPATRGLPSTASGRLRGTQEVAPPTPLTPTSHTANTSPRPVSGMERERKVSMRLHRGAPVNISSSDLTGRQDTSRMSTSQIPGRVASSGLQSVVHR

Compound | IC50 [1] [nM] | IC50 [2] [nM]
O=C(Nc1nc2cc3c(cc2[nH]1)OC(F)(F)O3)c1csc(-c2ccccc2)n1 [Compound 4, N-(2,2-difluoro-5H-[1,3]dioxolo[4′,5′:4,5]benzo[1,2-d]imidazol-6-yl)-2-phenylthiazole-4-carboxamide] | 200 to 1000 | 200 to 1000
O=C(Nc1nc2cc3c(cc2[nH]1)OC(F)(F)O3)c1csc(-c2ccc(C(F)(F)F)cc2)n1 [Compound 5, N-(2,2-difluoro-5H-[1,3]dioxolo[4′,5′:4,5]benzo[1,2-d]imidazol-6-yl)-2-(4-(trifluoromethyl)phenyl)thiazole-4-carboxamide] | > 1000 | > 1000
O=C(Nc1nc2cc3c(cc2[nH]1)OC(F)(F)O3)c1csc(-c2cccc(Cl)c2Cl)n1 [Compound 6, 2-(2,3-dichlorophenyl)-N-(2,2-difluoro-5H-[1,3]dioxolo[4′,5′:4,5]benzo[1,2-d]imidazol-6-yl)thiazole-4-carboxamide] | > 1000 | > 1000
O=C(Nc1nc(C(=O)Nc2nc3cc4c(cc3[nH]2)OC(F)(F)O4)cs1)c1ccc(Cl)cc1 [Compound 8, 2-(4-chlorobenzamido)-N-(2,2-difluoro-5H-[1,3]dioxolo[4′,5′:4,5]benzo[1,2-d]imidazol-6-yl)thiazole-4-carboxamide] | 200 to 1000 | 200 to 1000
O=C(Cc1cccc(Cl)c1)Nc1nc2cc3c(cc2[nH]1)OC(F)(F)O3 [Compound 8B, 2-(3-chlorophenyl)-N-(2,2-difluoro-5H-[1,3]dioxolo[4′,5′:4,5]benzo[1,2-d]imidazol-6-yl)acetamide] | < 200 | < 200
O=C(/C=C/c1ccccc1)Nc1nc(C(=O)Nc2nc3cc4c(cc3[nH]2)OC(F)(F)O4)co1 [Compound 9, 2-cinnamamido-N-(2,2-difluoro-5H-[1,3]dioxolo[4′,5′:4,5]benzo[1,2-d]imidazol-6-yl)oxazole-4-carboxamide] | > 1000 | > 1000
O=C(Nc1nc2cc3c(cc2[nH]1)OC(F)(F)O3)c1coc(NC(=O)c2ccco2)n1 [Compound 10, N-(2,2-difluoro-5H-[1,3]dioxolo[4′,5′:4,5]benzo[1,2-d]imidazol-6-yl)-2-(furan-2-carboxamido)oxazole-4-carboxamide] | 200 to 1000 | > 1000
O=C(Nc1nc2cc3c(cc2[nH]1)OC(F)(F)O3)c1c[nH]cn1 [Compound 103, N-(2,2-difluoro-5H-[1,3]dioxolo[4′,5′:4,5]benzo[1,2-d]imidazol-6-yl)-1H-imidazole-4-carboxamide] | 200 to 1000 | –
COC(=O)c1cccc(C(=O)Nc2nc3cc4c(cc3[nH]2)OC(F)(F)O4)c1 [Compound 105, methyl 3-((2,2-difluoro-5H-[1,3]dioxolo[4′,5′:4,5]benzo[1,2-d]imidazol-6-yl)carbamoyl)benzoate] | < 200 | –
O=C(Nc1nc2cc3c(cc2[nH]1)OC(F)(F)O3)c1ccc(Cl)cc1 [Compound 106, 4-chloro-N-(2,2-difluoro-5H-[1,3]dioxolo[4′,5′:4,5]benzo[1,2-d]imidazol-6-yl)benzamide] | > 1000 | –
Cc1ccc(C(=O)Nc2nc3cc4c(cc3[nH]2)OC(F)(F)O4)cc1 [Compound 107, N-(2,2-difluoro-5H-[1,3]dioxolo[4′,5′:4,5]benzo[1,2-d]imidazol-6-yl)-4-methylbenzamide] | > 1000 | –
CS(=O)(=O)Nc1cccc(C(=O)Nc2nc3cc4c(cc3[nH]2)OC(F)(F)O4)c1 [Compound 108, N-(2,2-difluoro-5H-[1,3]dioxolo[4′,5′:4,5]benzo[1,2-d]imidazol-6-yl)-3-(methylsulfonamido)benzamide] | < 200 | –
O=C(Nc1nc2cc3c(cc2[nH]1)OC(F)(F)O3)c1ccc(Cl)c(Cl)c1 [Compound 109, 3,4-dichloro-N-(2,2-difluoro-5H-[1,3]dioxolo[4′,5′:4,5]benzo[1,2-d]imidazol-6-yl)benzamide] | 200 to 1000 | –
Nc1ccc(C(=O)Nc2nc3cc4c(cc3[nH]2)OC(F)(F)O4)cn1 [Compound 110, 6-amino-N-(2,2-difluoro-5H-[1,3]dioxolo[4′,5′:4,5]benzo[1,2-d]imidazol-6-yl)nicotinamide] | 200 to 1000 | –
NS(=O)(=O)c1ccc(C(=O)Nc2nc3cc4c(cc3[nH]2)OC(F)(F)O4)cn1 [Compound 112, N-(2,2-difluoro-5H-[1,3]dioxolo[4′,5′:4,5]benzo[1,2-d]imidazol-6-yl)-6-sulfamoylnicotinamide] | < 200 | –
O=C(Nc1nc2cc3c(cc2[nH]1)OC(F)(F)O3)c1cccc(O)c1 [Compound 113, N-(2,2-difluoro-5H-[1,3]dioxolo[4′,5′:4,5]benzo[1,2-d]imidazol-6-yl)-3-hydroxybenzamide] | < 200 | –
CC(=O)c1cccc(C(=O)Nc2nc3cc4c(cc3[nH]2)OC(F)(F)O4)c1 [Compound 114, 3-acetyl-N-(2,2-difluoro-5H-[1,3]dioxolo[4′,5′:4,5]benzo[1,2-d]imidazol-6-yl)benzamide] | < 200 | –
CC(C)(C)c1ccc(C(=O)Nc2nc3cc4c(cc3[nH]2)OC(F)(F)O4)cc1 [Compound 115, 4-(tert-butyl)-N-(2,2-difluoro-5H-[1,3]dioxolo[4′,5′:4,5]benzo[1,2-d]imidazol-6-yl)benzamide] | 200 to 1000 | –

The next lines start with the values.

IC50 [1] [nM] | IC50 [2] [nM] | Compound
< 200 | – | N#Cc1cccc(C(=O)Nc2nc3cc4c(cc3[nH]2)OC(F)(F)O4)c1 [Compound 116, 3-cyano-N-(2,2-difluoro-5H-[1,3]dioxolo[4′,5′:4,5]benzo[1,2-d]imidazol-6-yl)benzamide]
< 200 | – | O=C(Nc1nc2cc3c(cc2[nH]1)OC(F)(F)O3)c1cccc(-c2nnn[nH]2)c1 [Compound 118, N-(2,2-difluoro-5H-[1,3]dioxolo[4′,5′:4,5]benzo[1,2-d]imidazol-6-yl)-3-(1H-tetrazol-5-yl)benzamide]
200 to 1000 | – | O=C(Nc1nc2cc3c(cc2[nH]1)OC(F)(F)O3)c1ccc(F)cc1 [Compound 119, N-(2,2-difluoro-5H-[1,3]dioxolo[4′,5′:4,5]benzo[1,2-d]imidazol-6-yl)-4-fluorobenzamide]
200 to 1000 | – | O=C(Nc1nc2cc3c(cc2[nH]1)OC(F)(F)O3)c1cccc(OC(F)(F)F)c1 [Compound 120, N-(2,2-difluoro-5H-[1,3]dioxolo[4′,5′:4,5]benzo[1,2-d]imidazol-6-yl)-3-(trifluoromethoxy)benzamide]
< 200 | – | O=C(Nc1nc2cc3c(cc2[nH]1)OC(F)(F)O3)c1cccc(OC(F)F)c1 [Compound 121, N-(2,2-difluoro-5H-[1,3]dioxolo[4′,5′:4,5]benzo[1,2-d]imidazol-6-yl)-3-(difluoromethoxy)benzamide]
< 200 | – | COc1cncc(C(=O)Nc2nc3cc4c(cc3[nH]2)OC(F)(F)O4)c1 [Compound 123, N-(2,2-difluoro-5H-[1,3]dioxolo[4′,5′:4,5]benzo[1,2-d]imidazol-6-yl)-5-methoxynicotinamide]
< 200 | – | COc1cc(C(=O)Nc2nc3cc4c(cc3[nH]2)OC(F)(F)O4)ccn1 [Compound 124, N-(2,2-difluoro-5H-[1,3]dioxolo[4′,5′:4,5]benzo[1,2-d]imidazol-6-yl)-2-methoxyisonicotinamide]
< 200 | – | Nc1ccc(C(=O)Nc2nc3cc4c(cc3[nH]2)OC(F)(F)O4)cc1C(F)(F)F [Compound 126, 4-amino-N-(2,2-difluoro-5H-[1,3]dioxolo[4′,5′:4,5]benzo[1,2-d]imidazol-6-yl)-3-(trifluoromethyl)benzamide]
200 to 1000 | – | Nc1ccc(C(=O)Nc2nc3cc4c(cc3[nH]2)OC(F)(F)O4)cc1F [Compound 127, 4-amino-N-(2,2-difluoro-5H-[1,3]dioxolo[4′,5′:4,5]benzo[1,2-d]imidazol-6-yl)-3-fluorobenzamide]
< 200 | – | O=C(Nc1nc2cc3c(cc2[nH]1)OC(F)(F)O3)c1cccc(N2CCCCC2)c1 [Compound 128, N-(2,2-difluoro-5H-[1,3]dioxolo[4′,5′:4,5]benzo[1,2-d]imidazol-6-yl)-3-(piperidin-1-yl)benzamide]
< 200 | – | CC(C)c1nc(-c2cccc(C(=O)Nc3nc4cc5c(cc4[nH]3)OC(F)(F)O5)c2)no1 [Compound 131, N-(2,2-difluoro-5H-[1,3]dioxolo[4′,5′:4,5]benzo[1,2-d]imidazol-6-yl)-3-(5-isopropyl-1,2,4-oxadiazol-3-yl)benzamide]
< 200 | – | CC(C)(C)c1nc(-c2cccc(C(=O)Nc3nc4cc5c(cc4[nH]3)OC(F)(F)O5)c2)no1 [Compound 132, 3-(5-(tert-butyl)-1,2,4-oxadiazol-3-yl)-N-(2,2-difluoro-5H-[1,3]dioxolo[4′,5′:4,5]benzo[1,2-d]imidazol-6-yl)benzamide]
< 200 | – | CCOC(=O)c1cc(C)n(-c2cccc(C(=O)Nc3nc4cc5c(cc4[nH]3)OC(F)(F)O5)c2)c1C [Compound 139, ethyl 1-(3-((2,2-difluoro-5H-[1,3]dioxolo[4′,5′:4,5]benzo[1,2-d]imidazol-6-yl)carbamoyl)phenyl)-2,5-dimethyl-1H-pyrrole-3-carboxylate]
> 1000 | – | Cc1cc(C(=O)Nc2nc3cc4c(cc3[nH]2)OC(F)(F)O4)no1 [Compound 145, N-(2,2-difluoro-5H-[1,3]dioxolo[4′,5′:4,5]benzo[1,2-d]imidazol-6-yl)-5-methylisoxazole-3-carboxamide]
> 1000 | – | Cc1cc(C(=O)Nc2nc3cc4c(cc3[nH]2)OC(F)(F)O4)nn1C [Compound 146, N-(2,2-difluoro-5H-[1,3]dioxolo[4′,5′:4,5]benzo[1,2-d]imidazol-6-yl)-1,5-dimethyl-1H-pyrazole-3-carboxamide]
